From PubChem BioAssay (NCI)
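Assay format: 96-well plates, 48-hour exposure. GI50 marks 50% less growth. At the TGI there is no net growth.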

Assays:
Assay in all cases: DTP human tumour cell line panel, 48 h
K-562 leukemia = tested on: K-562 leukemia
NCI-H23 lung = tested on: NCI-H23 lung
M14 melanoma = tested on: M14 melanoma
HCT-116 colon = tested on: HCT-116 colon
CCRF-CEM leukemia = tested on: CCRF-CEM leukemia
HOP-62 NSCLC = tested on: HOP-62 NSCLC
HL-60(TB) leukemia = tested on: HL-60(TB) leukemia
TK-10 renal = tested on: TK-10 renal
HT29 colon = tested on: HT29 colon
SF-268 CNS = tested on: SF-268 CNS

Row | Compound | GI50 (K-562 leukemia) | TGI (K-562 leukemia) | GI50 (NCI-H23 lung) | TGI (NCI-H23 lung) | GI50 (M14 melanoma) | TGI (M14 melanoma) | GI50 (HCT-116 colon) | TGI (HCT-116 colon) | GI50 (CCRF-CEM leukemia) | TGI (CCRF-CEM leukemia) | GI50 (HOP-62 NSCLC) | TGI (HOP-62 NSCLC) | GI50 (HL-60(TB) leukemia) | TGI (HL-60(TB) leukemia) | GI50 (TK-10 renal) | TGI (TK-10 renal) | GI50 (HT29 colon) | TGI (HT29 colon) | GI50 (SF-268 CNS) | TGI (SF-268 CNS)
1 | COc1cnc2c(c1)C(=O)c1c-2n(CCCN2CCOCC2)c(=O)c2cc(Cl)ccc12 | 0.525 µM | > 100 µM | 0.308 µM | > 100 µM | 0.323 µM | > 100 µM | 0.167 µM | > 100 µM | 0.12 µM | > 100 µM | 0.274 µM | 22.4 µM | 0.455 µM | > 100 µM | > 100 µM | > 100 µM | 0.233 µM | > 100 µM | 0.288 µM | > 100 µM
2 | COc1cccc(N2C(Cl)C(=O)C2c2c[nH]c3ccccc23)c1 (stereo not given) | – | > 100 µM | – | > 100 µM | – | > 100 µM | – | > 100 µM | – | > 100 µM | – | > 100 µM | – | > 100 µM | – | > 100 µM | – | > 100 µM | – | > 100 µM
